1 compound from patent US8592451B2, “Reversible nondepolarizing neuromuscular blockade agents and methods for their use” (Cornell University, priority 2009, dated 2013) can be followed below.

The assay deals with twitch of the extensor digitorum. The assay is described as follows: Neuromuscular blocking potency and duration in anesthetized rhesus monkeys. It counts as in vivo, rhesus monkeys (Macaca mulatta). The following applies: in vivo, comparable level of neuromuscular blockade. The procedure: Experiments were approved by the Institutional Animal Care and Use Committee of Weill Medical College of Cornell University (New York, N.Y.) and of Albany Medical College (Albany, N.Y.), where the studies were conducted. A colony of 10 adult male monkeys (Macaca mulatta) weighing 8-18 kg was studied at ˜6 week intervals. Animals were housed and cared for in accordance with the Guide for Care and Use of Laboratory Animals (National Research Council, Washington, D.C.). They were fed a standard Old World monkey diet, enriched with fruits and vegetables, and other dietary novelties and were followed throughout the study to verify normal health by physical examination, body weight, and clinical laboratory studies (Complete Blood Count, Blood Urea Nitrogen and creatinine, and liver function tests).
On the day of each study, monkeys received ketamine (7-10 mg/kg i.m.) followed by tracheal intubation under topical anesthesia with 4% lidocaine. Ventilation was controlled at 10 mL/kg and 20 breaths/min with isoflurane (1.0-2.0%) and N2O/O2 (2:1 mixture). Ringers lactate was administered at ˜10 ml kg^−1 h^−1. Arterial pressure was monitored from a femoral, superficial tibial, or radial (22 gauge) cannula. Heart rate was measured by tachograph from the arterial pulse wave. Core temperature was kept at 36.5-38.0° C. by warming blankets. Electrocardiogram and pulse oximetry were monitored continuously.
Needle electrodes (25 gauge) transmitting square-wave pulses of 0.2 msec duration at supramaximal voltage which were generated by a Grass S-88 stimulator (Grass Instruments, Quincy, Mass.) were placed at the peroneal nerve at the knee to elicit twitch responses of the extensor digitorum of the foot at 0.15 Hz. A small slip (10-20%) of the tendon was dissected free under sterile technique and tied to a Grass FT 10 force transducer (Grass Instruments, Quincy, Mass.) at a baseline tension of 50 gm. Train-of four stimulation (TOF, 2 Hz for 2 sec) was interposed at appropriate points, especially 1-2 min prior to NMBA dosing and following recovery of twitch to 95% of baseline, where TOF was subsequently evaluated every 1-2 min.
Recordings of circulatory and neuromuscular data were made on a Grass 7B polygraph (Grass Instruments). A baseline period of 15-20 min was allowed for stabilization of recordings prior to dosing.^2
Dose-response curves for twitch blockade by gantacurium, CW 002, CW 011, cisatracurium, CW002-Cys, NB 938-69, NB 1064-81, NB 802-17 (CW 001), NB 832-65, and NB 1163-79, structures of which are all shown above, were generated as follows. […] Successive doses were separated by at least three estimated half lives beyond complete recovery of the previous dose to TOF of 110-120%, which is normal for these monkeys. Only the first one or two doses yielding 5 to 99% blockade were included from any single experiment for computation of dose-response data.
Comparative studies of spontaneous recovery versus antagonism/reversal were done at least 3 estimated half-lives following dose-response studies.
ED 50 and ED 95 were computed from the regression of log dose vs. the logit of percentage blockade of twitch.
CW002-Cys, the L-cysteine adduct of CW 002, was available in limited quantity and was administered in cumulative fashion to three animals to compare approximate potency and duration of effect versus its parent compound CW 002.

Consider `COc1ccc(C[C@@H]2c3cc(OC)c(OC)cc3CC[N@@+]2(C)CCCOC(=O)/C=C\C(=O)OCCC[N@+]2(C)CCc3cc(OC)c(OC)cc3[C@H]2Cc2cc(OC)c(OC)c(OC)c2)cc1OC` [CW 011], for which the “potency relative to CW 002” value is listed as “approximately twice” and the “potency relative to gantacurium” value is listed as “four times”.
